Source: patent US8680113B2, “BMI-1 protein expression modulators” (PTC Therapeutics, Inc., priority 2008, dated 2014)

Key:
[1] = tested on: Bmi-1; test: Sandwich ELISA Assay (Bmi-1 ELISA in HT-1080 cells); type: cell-based, human
Procedure, shortened: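 Lysate Bmi-1 was quantified against a recombinant GST-Bmi-1 standard (0-8000 pg/mL) by sandwich ELISA read at OD450 with OD570 reference. The ELISA used mouse monoclonal capture, rabbit anti-Bmi-1, HRP anti-rabbit IgG and TMB. Before lysis, HT-1080 cells seeded at 8000/well were exposed to compounds for 40-48 h at 37°C with 0.5% final DMSO.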

[2] = tested on: MCL-Rec1; test: Mantle Cell Lymphoma Assay: cytotoxicity, Rec-1; type: cell-based; settings: 72 hrs; for viability at 0.004 µM / viability at 0.037 µM / viability at 0.11 µM / viability at 0.33 µM / viability at 1 µM / viability at 3 µM: Homo sapiens, read-out: Cell Viability (%)
Source text: (§1) MCL cell lines Jeko, Mino, and Rec-1 were provided by American Type Culture Collection: The Bioresource Center (Manassas, Va.). […] Carlsbad, Calif.) in T-75 culture flasks. Cell concentration was maintained between 2 to 3×10^5 cells/mL. Early passage cells (passages 2-4) were used for all experiments. Ficoll-Histopaque density sedimentation (Sigma Aldrich) was used for separation of debris and purification of cell lines prior to experiments. […] The cytotoxic effect of test compounds on the MCL-cell lines was assessed by measuring cell concentration and cell viability using a Beckman Coulter Vi-Cell Counter. Controls and treated cells were harvested and counted at day 3.

[3] = tested on: Bmi-1; test: Cell Model Assay: Bmi-1 expression in HT1080; type: cell-based, human; settings: HT1080 (fibrosarcoma)
Method: (§2) Using assay conditions known to those skilled in the art, the ability of the compounds described herein to reduce Bmi-1 expression in HT1080 (fibrosarcoma), U87-MG (glioblastoma), T98G (glioblastoma), K562 (chronic myelogenous leukemia) and KG1 (acute myelogenous leukemia) cell lines was tested (at test compound concentrations calculated from the ELISA assay data shown in Example 1) compared to puromycin as a control to provide the EC50 values shown in Table 2. The term “ND” means that data was not determined.

[4] = tested on: MM cell line; test: Multiple Myeloma Assay; type: cell-based; settings: 72 hrs in culture
[5] = tested on: Bmi-1; test: Cell Model Assay: Bmi-1 expression in U87-MG; type: cell-based; settings: U87-MG (glioblastoma)
Method: as §2

[6] = tested on: MCL-Mino; test: Mantle Cell Lymphoma Assay: cytotoxicity, Mino; type: cell-based; settings: MCL-Mino, 72 hrs; for viability at 0.004 µM / viability at 0.037 µM / viability at 0.11 µM / viability at 0.33 µM / viability at 1 µM / viability at 3 µM: Homo sapiens, read-out: Cell Viability (%)
Source text: as §1

[7] = tested on: Bmi-1; test: Cell Model Assay: Bmi-1 expression in T98G; type: cell-based; settings: T98G (glioblastoma)
Method: as §2

Row | SMILES | IC50 [1] [nM] | viability at 0.004 µM ([2]; MCL-Rec1, 0.004 μM) [%] | viability at 0.037 µM ([2]; MCL-Rec1, 0.037 μM) [%] | viability at 0.11 µM ([2]; MCL-Rec1, 0.11 μM) [%] | viability at 0.33 µM ([2]; MCL-Rec1, 0.33 μM) [%] | viability at 1 µM ([2]; MCL-Rec1, 1 μM) [%] | viability at 3 µM ([2]; MCL-Rec1, 3 μM) [%] | Cell Concentration (×10^6) ([2]; MCL-Rec1, 0.004 μM) | Cell Concentration (×10^6) ([2]; MCL-Rec1, 0.037 μM) | Cell Concentration (×10^6) ([2]; MCL-Rec1, 0.11 μM) | Cell Concentration (×10^6) ([2]; MCL-Rec1, 0.33 μM) | Cell Concentration (×10^6) ([2]; MCL-Rec1, 1 μM) | Cell Concentration (×10^6) ([2]; MCL-Rec1, 3 μM) | EC50 [3] [nM] | Cell Concentration, MM cell line ([4]; dose 0.004 μM) | viability at 0.004 µM ([4]; dose 0.004 μM) [%] | Cell Concentration, MM cell line ([4]; dose 0.037 μM) | viability at 0.037 µM ([4]; dose 0.037 μM) [%] | Cell Concentration, MM cell line ([4]; dose 0.11 μM) | viability at 0.11 µM ([4]; dose 0.11 μM) [%] | further results
1 | COc1ccc(Nc2nc(-c3c(C)nc4ncccn34)cs2)cc1 [Cpd 14, N-(4-methoxyphenyl)-4-(2-methylimidazo[1,2-a]pyrimidin-3-yl)thiazol-2-amine] | < 500 | 88.1 ± 0.88 | 84.5 ± 0.66 | 34.4 ± 3.25 | 8.93 ± 0.15 | 9.83 ± 0.33 | 9.5 ± 0.35 | 1.52 ± 0.02 ×10^6 | 1.22 ± 0.02 ×10^6 | 0.24 ± 0.03 ×10^6 | 0.05 ± 0.00 ×10^6 | 0.05 ± 0.00 ×10^6 | 0.05 ± 0.00 ×10^6 | 3 | 0.84 ± 0.01 ×10^6 | 84.53 ± 0.4 | 0.22 ± 0.00 ×10^6 | 54.4 ± 0.98 | 0.21 ± 0.01 ×10^6 | 54.9 ± 2.79 | Cell Concentration, MM cell line ([4]; dose 0.33 μM): 0.21 ± 0.01 ×10^6; viability at 0.33 µM ([4]; dose 0.33 μM): 57.7 ± 1.33%; Cell Concentration, MM cell line ([4]; dose 1 μM): 0.24 ± 0.01 ×10^6; viability at 1 µM ([4]; dose 1 μM): 60.9 ± 1.26%; Cell Concentration, MM cell line ([4]; dose 3 μM): 0.25 ± 0.01 ×10^6; viability at 3 µM ([4]; dose 3 μM): 59.9 ± 1.32%; EC50 [5]: 8 nM; viability at 0.004 µM ([6]; 0.004 μM): 92.27 ± 0.38%; viability at 0.037 µM ([6]; 0.037 μM): 64.5 ± 16.6%; viability at 0.11 µM ([6]; 0.11 μM): 40.6 ± 1.91%; viability at 0.33 µM ([6]; 0.33 μM): 18.1 ± 1.78%; viability at 1 µM ([6]; 1 μM): 13.5 ± 1.85%; viability at 3 µM ([6]; 3 μM): 14.1 ± 0.28%; Cell Concentration (×10^6) ([6]; 0.004 μM): 1.26 ± 0.01 ×10^6; Cell Concentration (×10^6) ([6]; 0.037 μM): 0.66 ± 0.24 ×10^6; Cell Concentration (×10^6) ([6]; 0.11 μM): 0.23 ± 0.01 ×10^6; Cell Concentration (×10^6) ([6]; 0.33 μM): 0.06 ± 0.01 ×10^6; Cell Concentration (×10^6) ([6]; 1 μM): 0.05 ± 0.01 ×10^6; Cell Concentration (×10^6) ([6]; 3 μM): 0.05 ± 0.00 ×10^6; EC50 [7]: < 4 nM
2 | COc1cc(Br)c(Nc2nc(-c3c(C)nc4ncccn34)cs2)c(Br)c1 [Cpd 1, N-(2,6-dibromo-4-methoxyphenyl)-4-(2-methylimidazo[1,2-a]pyrimidin-3-yl)thiazol-2-amine] | < 500 | 91.9 ± 0.5 | 91.7 ± 0.4 | 91.7 ± 0.2 | 90.9 ± 0.2 | 85 ± 0.6 | 56.3 ± 0.4 | 1.66 ± 0.12 ×10^6 | 1.74 ± 0.05 ×10^6 | 1.73 ± 0.02 ×10^6 | 1.66 ± 0.01 ×10^6 | 0.96 ± 0.08 ×10^6 | 0.32 ± 0.01 ×10^6 | 390 | 1.02 ± 0.03 ×10^6 | 90.07 ± 0.34 | 1.06 ± 0.01 ×10^6 | 89.53 ± 0.71 | 1.13 ± 0.02 ×10^6 | 90.33 ± 0.1 | Cell Concentration, MM cell line ([4]; dose 0.33 μM): 1.10 ± 0.02 ×10^6; viability at 0.33 µM ([4]; dose 0.33 μM): 90.63 ± 0.28%; Cell Concentration, MM cell line ([4]; dose 1 μM): 0.54 ± 0.03 ×10^6; viability at 1 µM ([4]; dose 1 μM): 85.4 ± 0.58%; Cell Concentration, MM cell line ([4]; dose 3 μM): 0.39 ± 0.02 ×10^6; viability at 3 µM ([4]; dose 3 μM): 79.03 ± 0.45%; EC50 [5]: 420 nM; viability at 0.004 µM ([6]; 0.004 μM): 94.7 ± 0.2%; viability at 0.037 µM ([6]; 0.037 μM): 95.1 ± 0.2%; viability at 0.11 µM ([6]; 0.11 μM): 94.6 ± 0.2%; viability at 0.33 µM ([6]; 0.33 μM): 94.5 ± 0.3%; viability at 1 µM ([6]; 1 μM): 89.4 ± 0.4%; viability at 3 µM ([6]; 3 μM): 59.3 ± 0.5%; Cell Concentration (×10^6) ([6]; 0.004 μM): 1.53 ± 0.07 ×10^6; Cell Concentration (×10^6) ([6]; 0.037 μM): 1.53 ± 0.05 ×10^6; Cell Concentration (×10^6) ([6]; 0.11 μM): 1.55 ± 0.02 ×10^6; Cell Concentration (×10^6) ([6]; 0.33 μM): 1.50 ± 0.02 ×10^6; Cell Concentration (×10^6) ([6]; 1 μM): 0.74 ± 0.02 ×10^6; Cell Concentration (×10^6) ([6]; 3 μM): 0.20 ± 0.01 ×10^6; EC50 [7]: 220 nM
